Experimental data as given in ChEMBL document CHEMBL4020778, “Recent progress towards clinically relevant ATP-competitive Akt inhibitors” (Bioorg Med Chem Lett, 2017).

How the values were obtained:
[1] = biological target: Rho-associated protein kinase 1 (Homo sapiens) (UniProt Q13464); experiment: Inhibition of ROCK1 (unknown origin) at 10 uM relative to control
Homo sapiens [2] = species on record: Homo sapiens; experiment: Inhibition of MSK (unknown origin) at 10 uM relative to control
[3] = biological target: Rho-associated protein kinase 2 (Rattus norvegicus) (UniProt Q62868); experiment: Inhibition of rat ROCK2 (2 to 543 residues) at 10 uM using substrate after 5 mins in presence of [33P]ATP by scintillation counting method relative to control
[4] = Ratio of drug level in tumor to plasma in CrTac:Ncr-Fox1nu mouse at 40 mg/kg, po administered once daily for 2 days measured after 24 hrs post last dose; type: ADME, organism-based
[5] = Half life in Balb/c mouse at 5 mg/kg, iv by LC-MS/MS analysis; type: ADME, organism-based; settings: in vivo
[6] = biological target: cAMP-dependent protein kinase catalytic subunit alpha (Homo sapiens, UniProt P17612); experiment: Inhibition of recombinant human His-tagged PKA catalytic domain (1 to 351 residues) expressed in Escherichia coli using Ser/Thr 7 as substrate after 1 hr by FRET-based Z'-Lyte assay
[7] = biological target: Ribosomal protein S6 kinase alpha-1/alpha-3 (Homo sapiens) (UniProt P51812+Q15418); experiment: Inhibition of RSK1/2 (unknown origin) at 10 uM relative to control; type: protein assay
BT-474 = experiment: Anti-tumor activity against human BT474 cells xenografted in CrTac:Ncr-Fox1nu mouse assessed as reduction in tumor weight at 40 mg/kg, po administered once daily for 2 days measured after 26 days relative to control; type: functional
Homo sapiens [8] = species on record: Homo sapiens; experiment: Inhibition of PKA (unknown origin) at 10 uM relative to control
[9] = biological target: Glycogen synthase kinase-3 beta (Homo sapiens) (UniProt P49841); experiment: Inhibition of GSK3beta phosphorylation at ser9 in human U87MG cells at >1 uM by Western blot analysis relative to control; type: cell-based
[10] = tested on: T1, Serine/threonine-protein kinase Sgk1 (Homo sapiens), O00141 [S422D]; experiment: Inhibition of human SGK1 S422D mutant (60 to 431 residues) at 10 uM using substrate after 5 mins in presence of [33P]ATP by scintillation counting method relative to control
T1 sequence (whole entry): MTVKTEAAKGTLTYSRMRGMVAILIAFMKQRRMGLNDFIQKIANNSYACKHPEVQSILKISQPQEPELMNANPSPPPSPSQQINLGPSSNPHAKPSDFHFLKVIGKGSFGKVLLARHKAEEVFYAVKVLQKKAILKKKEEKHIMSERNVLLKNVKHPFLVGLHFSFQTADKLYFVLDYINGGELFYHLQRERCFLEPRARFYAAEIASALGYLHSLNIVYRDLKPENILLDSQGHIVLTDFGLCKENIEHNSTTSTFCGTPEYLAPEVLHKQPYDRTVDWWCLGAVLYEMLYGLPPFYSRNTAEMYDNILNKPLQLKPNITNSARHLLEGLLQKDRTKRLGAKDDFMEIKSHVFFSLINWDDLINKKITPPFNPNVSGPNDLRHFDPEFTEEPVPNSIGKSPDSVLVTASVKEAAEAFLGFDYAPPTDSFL

[11] = tested on: Ribosomal protein S6 kinase beta-1 (Homo sapiens), P23443 [T412E]; experiment: Inhibition of human p70S6K T412E mutant (1 to 421 residues) at 10 uM using substrate after 5 mins in presence of [33P]ATP by scintillation counting method relative to control
Ribosomal protein S6 kinase beta-1 (Homo sapiens), P23443 [T412E], sequence (P23443 whole entry T412E, looked up, the tested form may be a part): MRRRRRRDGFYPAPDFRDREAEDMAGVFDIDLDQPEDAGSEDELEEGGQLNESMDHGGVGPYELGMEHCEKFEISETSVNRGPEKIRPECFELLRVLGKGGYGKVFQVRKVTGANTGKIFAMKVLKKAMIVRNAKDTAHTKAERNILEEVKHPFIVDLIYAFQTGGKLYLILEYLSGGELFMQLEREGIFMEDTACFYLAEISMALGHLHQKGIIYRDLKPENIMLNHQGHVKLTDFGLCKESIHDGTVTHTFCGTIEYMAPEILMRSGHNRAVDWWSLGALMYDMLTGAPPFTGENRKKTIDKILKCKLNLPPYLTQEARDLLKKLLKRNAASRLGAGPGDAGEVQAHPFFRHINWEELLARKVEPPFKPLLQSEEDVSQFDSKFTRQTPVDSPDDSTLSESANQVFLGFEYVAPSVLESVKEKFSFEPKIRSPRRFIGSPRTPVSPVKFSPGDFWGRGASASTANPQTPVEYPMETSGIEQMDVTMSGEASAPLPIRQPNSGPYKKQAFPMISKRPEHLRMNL

Ribosomal protein S6 kinase alpha-1/alpha-3 (Homo sapiens), sequence (P51812 whole entry, looked up): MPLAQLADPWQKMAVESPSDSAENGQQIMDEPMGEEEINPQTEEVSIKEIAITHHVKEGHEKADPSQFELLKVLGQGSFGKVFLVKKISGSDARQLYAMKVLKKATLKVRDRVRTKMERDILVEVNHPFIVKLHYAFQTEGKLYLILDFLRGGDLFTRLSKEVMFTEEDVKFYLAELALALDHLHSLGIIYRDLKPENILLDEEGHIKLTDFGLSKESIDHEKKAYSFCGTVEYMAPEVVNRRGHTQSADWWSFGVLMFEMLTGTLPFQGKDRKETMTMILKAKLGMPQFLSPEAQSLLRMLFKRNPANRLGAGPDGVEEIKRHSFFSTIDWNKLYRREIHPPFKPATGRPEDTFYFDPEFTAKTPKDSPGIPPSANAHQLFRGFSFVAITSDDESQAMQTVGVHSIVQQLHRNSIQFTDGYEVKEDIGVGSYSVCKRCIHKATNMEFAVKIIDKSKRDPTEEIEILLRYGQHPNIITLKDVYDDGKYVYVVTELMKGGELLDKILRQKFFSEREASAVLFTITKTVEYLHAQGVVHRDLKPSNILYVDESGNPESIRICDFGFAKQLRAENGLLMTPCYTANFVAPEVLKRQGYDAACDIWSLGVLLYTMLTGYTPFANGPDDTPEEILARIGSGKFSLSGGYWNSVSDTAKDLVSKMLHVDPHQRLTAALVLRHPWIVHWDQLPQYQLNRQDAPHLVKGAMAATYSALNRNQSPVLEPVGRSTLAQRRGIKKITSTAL
Ribosomal protein S6 kinase alpha-1/alpha-3 (Homo sapiens), sequence (Q15418 whole entry, looked up): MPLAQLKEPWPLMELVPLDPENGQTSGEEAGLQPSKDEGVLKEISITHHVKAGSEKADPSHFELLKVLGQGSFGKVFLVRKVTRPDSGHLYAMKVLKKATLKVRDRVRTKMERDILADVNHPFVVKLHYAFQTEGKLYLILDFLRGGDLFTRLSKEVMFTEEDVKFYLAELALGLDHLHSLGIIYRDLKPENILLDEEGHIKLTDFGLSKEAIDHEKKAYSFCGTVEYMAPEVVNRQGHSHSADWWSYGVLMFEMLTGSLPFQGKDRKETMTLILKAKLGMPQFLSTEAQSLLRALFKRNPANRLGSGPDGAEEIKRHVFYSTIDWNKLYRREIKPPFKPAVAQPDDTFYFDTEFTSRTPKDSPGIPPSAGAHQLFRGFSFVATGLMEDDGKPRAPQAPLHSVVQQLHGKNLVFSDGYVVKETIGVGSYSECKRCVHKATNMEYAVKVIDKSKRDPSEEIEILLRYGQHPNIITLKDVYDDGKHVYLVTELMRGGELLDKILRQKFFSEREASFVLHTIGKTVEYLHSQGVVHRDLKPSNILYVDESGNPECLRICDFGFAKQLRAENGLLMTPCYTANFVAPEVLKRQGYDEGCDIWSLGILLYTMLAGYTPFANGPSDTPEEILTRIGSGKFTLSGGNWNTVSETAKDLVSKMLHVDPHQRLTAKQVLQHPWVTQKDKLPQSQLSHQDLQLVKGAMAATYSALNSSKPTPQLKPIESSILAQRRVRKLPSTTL
Rho-associated protein kinase 1 (Homo sapiens), sequence (Q13464 2-1354 limits assumed): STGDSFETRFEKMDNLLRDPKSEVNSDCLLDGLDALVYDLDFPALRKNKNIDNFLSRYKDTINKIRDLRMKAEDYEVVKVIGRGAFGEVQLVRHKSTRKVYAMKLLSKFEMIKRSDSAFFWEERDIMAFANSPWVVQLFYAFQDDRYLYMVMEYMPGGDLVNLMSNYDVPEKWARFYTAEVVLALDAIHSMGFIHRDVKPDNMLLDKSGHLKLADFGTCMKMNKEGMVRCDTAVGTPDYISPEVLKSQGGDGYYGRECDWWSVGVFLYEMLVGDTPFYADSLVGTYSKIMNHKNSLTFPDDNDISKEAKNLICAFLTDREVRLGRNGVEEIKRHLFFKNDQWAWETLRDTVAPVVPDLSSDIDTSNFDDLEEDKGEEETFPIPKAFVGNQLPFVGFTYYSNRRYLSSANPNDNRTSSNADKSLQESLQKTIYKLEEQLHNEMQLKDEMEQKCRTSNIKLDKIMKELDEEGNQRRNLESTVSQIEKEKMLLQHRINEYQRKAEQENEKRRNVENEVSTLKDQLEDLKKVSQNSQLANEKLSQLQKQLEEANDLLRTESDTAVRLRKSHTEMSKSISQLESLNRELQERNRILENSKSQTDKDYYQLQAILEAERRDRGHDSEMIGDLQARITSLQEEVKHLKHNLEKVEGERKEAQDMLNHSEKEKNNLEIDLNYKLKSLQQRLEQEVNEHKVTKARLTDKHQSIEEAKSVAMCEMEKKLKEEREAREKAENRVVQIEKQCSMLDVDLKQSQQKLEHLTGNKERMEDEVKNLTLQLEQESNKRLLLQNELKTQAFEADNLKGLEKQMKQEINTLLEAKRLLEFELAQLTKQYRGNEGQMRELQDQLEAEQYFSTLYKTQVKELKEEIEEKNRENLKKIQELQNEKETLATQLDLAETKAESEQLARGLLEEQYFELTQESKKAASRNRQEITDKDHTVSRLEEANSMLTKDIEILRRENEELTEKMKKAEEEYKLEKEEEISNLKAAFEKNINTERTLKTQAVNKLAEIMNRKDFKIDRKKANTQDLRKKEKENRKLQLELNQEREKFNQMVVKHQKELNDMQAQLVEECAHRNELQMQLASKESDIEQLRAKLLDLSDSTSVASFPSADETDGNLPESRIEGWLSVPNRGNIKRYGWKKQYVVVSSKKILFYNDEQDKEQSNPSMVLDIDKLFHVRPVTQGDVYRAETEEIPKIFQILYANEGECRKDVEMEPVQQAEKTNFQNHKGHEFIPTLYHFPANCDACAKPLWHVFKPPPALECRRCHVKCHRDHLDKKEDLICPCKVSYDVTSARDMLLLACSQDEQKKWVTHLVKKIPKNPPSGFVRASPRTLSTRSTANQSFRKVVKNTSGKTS
Glycogen synthase kinase-3 beta (Homo sapiens), sequence (P49841 whole entry, looked up, the tested form may be a part): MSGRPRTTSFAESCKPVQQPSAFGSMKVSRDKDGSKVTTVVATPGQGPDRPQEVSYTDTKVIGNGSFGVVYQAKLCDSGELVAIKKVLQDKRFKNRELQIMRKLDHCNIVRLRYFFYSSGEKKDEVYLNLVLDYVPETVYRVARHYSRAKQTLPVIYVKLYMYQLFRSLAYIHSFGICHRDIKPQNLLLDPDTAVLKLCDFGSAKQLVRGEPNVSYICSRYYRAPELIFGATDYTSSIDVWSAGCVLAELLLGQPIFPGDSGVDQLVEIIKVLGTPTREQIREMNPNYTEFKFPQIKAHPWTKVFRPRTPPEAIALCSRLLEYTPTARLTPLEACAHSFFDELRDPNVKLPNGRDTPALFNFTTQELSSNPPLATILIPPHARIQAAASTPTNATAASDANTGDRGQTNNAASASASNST

inhibition [1]: > 80%
inhibition (Homo sapiens [2]): > 80%
inhibition [3]: > 80%
Kp at 24 h [4]: 13.6
half-life [5]: 2.8 h
IC50 [6]: < 0.01 µM
inhibition [7]: > 80%
inhibition (Homo sapiens [8]): > 80%
inhibition [9]: 50%
inhibition [10]: > 80%
inhibition [11]: > 80%
Structure (SMILES): NC[C@@](O)(c1ccc(Cl)cc1)c1ccc(-c2cn[nH]c2)cc1 [AT-13148]
T/C (BT-474): 36%
